In patent US5521284A, “Human cancer inhibitory pentapeptide amides and esters” (priority 1994, dated 1996):

How the values were obtained:
[1] = tested on: OVCAR-3 Human Ovary Xenograph; experiment: OVCAR-3 Human Ovary Xenograph Nude Mouse; format: in vivo; details: 40 μg/kg; time of survival
From the text: (§1) Experimental Anticancer Activity of Dolastatin 10 in
(§2) Murine in vivo Systems, T/C (μg/kg)
(§3) T/C - 100 = % life extension.

[2] = tested on: MX-1 Human Mammary Xenograft; experiment: MX-1 Human Mammary Xenograft (Tumor Regression); format: in vivo, Murine
From the text: as §1, §2, §3

[3] = tested on: LOX Human Melanoma Xenograph; experiment: LOX Human Melanoma Xenograph (Nude Mouse)
From the text: (§4) T/C = Test Control, both bearing tumor, expressed in time of survival.
as §3

B16 Melanoma = experiment: Murine in vivo system, B16 Melanoma; details: 11.11 μg/kg
From the text: as §1, §2, §3

[4] = tested on: P388 Lymphocytic Leukemia; experiment: Murine in vivo system, P388 Lymphocytic Leukemia
From the text: as §4, §3

[5] = tested on: L1210 Lymphocytic Leukemia; experiment: Murine in vivo system, L1210 Lymphocytic Leukemia; details: 1.63 μg/kg; time of survival
From the text: as §1, §2, §3

Human Mammary Xenograph = Human Mammary Xenograph Nude Mouse; details: 26 μg/kg
From the text: as §4, §3

OVCAR-3 = experiment: NCI in vitro mini panel, Ovarian OVCAR-3; format: cell-based, Human; details: 48 hrs
Protocol: (§5) ED50 (P388) and GI50 (HTCL) identify the drug dose which reduces the percent tumor/cell growth to 50%. There is no mathematical difference between ED50 and GI50, both of which are calculated using the same formula. The only difference is historical usage.
(§6) TGI, means "Total Growth Inhibition", and identifies the drug dose needed to yield zero percent growth, i.e. there are just as many cells at the end of the experiment as were present at the beginning. Whether just as many cells were killed as were produced (steady state), or no growth occurred (total inhibition) cannot be distinguished.
(§7) LC50, means "Lethal Concentration 50%", and identifies the drug concentration which reduces to one-half of the cells originally present at the beginning of the experiment.
(§8) Each drug is tested at five (5) doses: 100-10-1-0.1-0.01--μg/mL. Percent Growths are calculated for each dose. The two (or three) doses with growth values above, below, (or near to) 50% growth are used to calculate the ED50 /GI50 values using a linear regression computation. If no dose yields a growth value under 50%, the results are expressed as: ED50 >(highest dose). If no dose yields growth higher than 50% growth, then ED50 <(lowest dose). Similar calculations are performed for the TGI at 0% growth, and at -50% growth for the LC50.
(§9) At the start of each experiment, cells from the in vitro cell cultures are inoculated into the appropriate tubes or microtiter plates. One set of control tubes/plates is immediately counted to determine the number of cells at the start of the experiment. This is the "baseline count", or "Tzero reading". At the end of the experiment (48 hrs later), a second set of control tubes/plates is analyzed to determine the "Control Growth" value. The growth (or death) of cells relative to the initial quantity of cells is used to define the "Percent of Growth."
(§10) For each of six cell lines, GI50, TGI, and LC50 amounts were also calculated for each of the compounds. Each compound was also tested against the PS-388 cell line and for this test an ED50 was calculated.
(§11) The protocols followed, for the NCI minipanel are, except for the number of cell lines, those established by M. R. Boyd Ph.D., and well known to those of ordinary skill in the art. The procedure followed for the test against PS-388 Leukemia is the same that was followed in the superseded NCI P-388 screening test, which is also well known to those having ordinary skill in the art.

A498 = experiment: NCI in vitro mini panel, Renal A498; format: cell-based, Human; details: 48 hrs
Protocol: as §5, §6, §7, §8, §9, §10, §11

PS-388 = PS-388 Mouse Leukemia cell line test; format: cell-based; details: Mouse Leukemia PS-388
Protocol: as §5, §8, §9, §10, §11

KM20L2 = experiment: NCI in vitro mini panel, Colon KM20L2; format: cell-based, Human; details: 48 hrs
Protocol: as §5, §6, §7, §8, §9, §10, §11

NCI-H460 = experiment: NCI in vitro mini panel, Lung-NSC NCI-H460; format: cell-based, Human; details: 48 hrs
Protocol: as §5, §6, §7, §8, §9, §10, §11

SK-MEL-5 = experiment: NCI in vitro mini panel, Melanoma SK-MEL-5; format: cell-based, Human; details: 48 hrs
Protocol: as §5, §6, §7, §8, §9, §10, §11

SF-295 = experiment: NCI in vitro mini panel, CNS SF-295; format: cell-based, Human; details: 48 hrs
Protocol: as §5, §6, §7, §8, §9, §10, §11

Row | Substance | GI-50 (OVCAR-3) | LC-50 (OVCAR-3) | TGI (OVCAR-3) | GI-50 (A498) | LC-50 (A498) | TGI (A498) | ED-50 (PS-388) | GI-50 (KM20L2) | LC-50 (KM20L2) | TGI (KM20L2) | GI-50 (NCI-H460) | LC-50 (NCI-H460) | TGI (NCI-H460) | GI-50 (SK-MEL-5) | LC-50 (SK-MEL-5) | TGI (SK-MEL-5) | GI-50 (SF-295) | LC-50 (SF-295) | TGI (SF-295) | other results
1 | Dolastatin 10 |  |  |  |  |  |  |  |  |  |  |  |  |  |  |  |  |  |  |  | T/C [1]: 300; T/C (Tumor Regression) ([2]; 6.25 μg/kg): 69; T/C (Tumor Regression) ([2]; 13 μg/kg): 61; T/C (Tumor Regression) ([2]; 26 μg/kg): 50; T/C (Tumor Regression) ([2]; 52 μg/kg): 14; cures ([3]; 3.25 μg/kg): 17%; T/C ([3]; 3.25 μg/kg, time of survival): 170; cures ([3]; 6.5 μg/kg): 33%; cures ([3]; 13 μg/kg): 50%; cures ([3]; 26 μg/kg): 67%; T/C ([3]; 52 μg/kg): toxic; T/C ([3]; Lox in separate experiments, 43 μg/kg, time of survival): 340; cures (B16 Melanoma): 40%; cures ([4]; 3.25 μg/kg): 17%; cures ([4]; 6.5 μg/kg): 17%; T/C ([4]; 13.0 μg/kg): toxic; T/C [5]: 120; T/C (Human Mammary Xenograph): Toxic
2 | Dov-Ie-Dil-Dap-Doe [Compound 12] | 0.0000000091 µg/mL | > 1 µg/mL | 6e-05 ng/mL | 0.000000058 µg/mL | > 1 µg/mL | 17 ng/mL | 0.0000248 µg/mL | 0.0000000072 µg/mL | > 1 µg/mL | 0.0001 ng/mL | 0.0000000058 µg/mL | > 1 µg/mL | 6.5e-05 ng/mL | 0.0000000048 µg/mL | > 1 µg/mL | 0.00015 ng/mL | 0.000000025 µg/mL | > 1 µg/mL | 0.00025 ng/mL | 
3 | Dov-Val-Dil-Dap Octyl ester [Compound 16b] | 0.0031 µg/mL | > 1 µg/mL | 40 ng/mL | 0.025 µg/mL | > 1 µg/mL | 550 ng/mL | 0.029 µg/mL | 0.0017 µg/mL | > 1 µg/mL | 130 ng/mL | 0.0042 µg/mL | > 1 µg/mL | 58 ng/mL | 0.0027 µg/mL | > 1 µg/mL | > 1000 ng/mL | 0.0054 µg/mL | > 1 µg/mL | > 1000 ng/mL | 
4 | Dov-Val-Dil-Dap Pentyl ester [Compound 16a] | 0.00052 µg/mL | > 1 µg/mL | 1.1 ng/mL | < 0.0001 µg/mL | > 1 µg/mL | 180 ng/mL | 0.021 µg/mL |  | > 1 µg/mL | 13 ng/mL | 0.00034 µg/mL | > 1 µg/mL | 1.1 ng/mL | 0.00066 µg/mL | > 1 µg/mL | 31 ng/mL |  | > 1 µg/mL | 21 ng/mL | 
5 | Dov-Val-Dil-Dap hexylamide [Compound 16c] | 0.0005 µg/mL | > 0.01 µg/mL | 3.9 ng/mL | 0.0019 µg/mL | > 0.01 µg/mL | > 10 ng/mL | 0.00227 µg/mL | 0.00092 µg/mL | > 0.01 µg/mL | 6.6 ng/mL | 0.00071 µg/mL | > 0.01 µg/mL | 5.1 ng/mL | 0.00058 µg/mL | > 0.01 µg/mL | > 10 ng/mL | 0.0011 µg/mL | > 0.01 µg/mL | > 10 ng/mL | 
6 | Dov-ile-Dil-Dap-Met-OMe [Compound 14] | 0.000067 µg/mL | > 1 µg/mL | 0.67 ng/mL | 0.00027 µg/mL | > 1 µg/mL | 35 ng/mL | 0.00032 µg/mL | 0.000034 µg/mL | > 1 µg/mL | 1.3 ng/mL | 0.00012 µg/mL | > 1 µg/mL | 0.13 ng/mL | 0.000044 µg/mL | > 1 µg/mL | 22 ng/mL | 0.00025 µg/mL | > 1 µg/mL | > 1000 ng/mL | 
